The test concerns the target T1, GAL4-DBD/RORγ-LBD (Homo sapiens, UniProt P51449).
T1 construct: expressed in transfected cells; host or cells: HEK293T
Put plainly: RORγt transactivation reporter assay (GAL4-DBD/RORγ-LBD, luciferase read out). The class given is cell-based. The conditions noted are these: HEK293T cells, GAL4-UAS luciferase reporter, overnight (18-24 hours) incubation. As to the method: RORγt Transactivation Reporter Assay Protocol: The inhibition of RORγt activity in cells was evaluated using a GAL4-UAS reporter system in HEK293T cells employing a luciferase read out. RORγt ligand binding domain (LBD) was cloned into the pFN26A (BIND) vector (Promega #[…]) containing yeast GAL4-DBD to form a RORγt LBD-GAL4 DBD fusion construct. This vector also contained a Renilla Luciferase reporter expressed under a SV40 promoter which was used as a control for transfection efficiency. A transcriptional reporter expression construct pGL4.35 (Promega #[…]) was used to monitor RORγt LBD-GAL4 activity. This construct contained nine repeats of GAL4 binding site/upstream activating sequence (UAS) controlling expression of a firefly luciferase reporter Luc2P. When transfected together in cells, the RORγ-LBD-DBD fusion protein drives expression of the luciferase reporter. For the assay, HEK293T cells were plated in a flat bottom 96 well plate at a density of 25,000 cells/well/100 ul of DMEM high glucose medium (Sigma D5648) containing 10% FBS and antibiotic. Cells were incubated overnight at 37 C/5% CO2. The next day, medium from the wells was removed and replaced with 30 ul of OptiMEM® (Invitrogen #31985070). 100 ng each of pBIND RORγ LBD-DBD and pGL4.35 reporter plasmids was transfected in HEK293T cells using Lipofectamine 2000 (Invitrogen #11668-019) where 10 ul of transfection complex was added to the each well. Control transfections were performed with an empty pF[…] vector and pGL4.35 vector. The transfected cells were incubated for 5 hours at 37 C/5% CO2. After incubation, 40 ul of DMEM high glucose medium without FBS, with antibiotic was added to each well. A 10 mM stock solution of test compound prepared in 100% DMSO was first diluted in DMSO and then in DMEM medium without FBS to give the required final compound concentration. Concentration of DMSO in the test compound solution was 0.4%. 20 ul of diluted compound solution was added to each well. Cells were incubated overnight (18-24 hours) at 37 C/5% CO2. The next day, luciferase assay was performed using the Dual Glo® Luciferase Assay System (Promega #E2940). Briefly, medium was removed from the wells and replaced with 40 ul 1× Passive Lysis Buffer (Promega #E1941). Plate was incubated at room temperature on a plate shaker at 1000 rpm for 40 min. After incubation, plate was centrifuged at 1000 rpm for 2 min. 20 ul of the lysate was transferred from each well to that of solid white half area 96 well plate (Costar #3693). Dual Glo® Reagent was thawed to room temperature and 20 ul was added to each well containing lysate. Plate was centrifuged at 1000 rpm/2 min and incubated at room temperature on a plate shaker at 600 rpm/25 min. Firefly luciferase signal was measured on a Tecan Safire2. After measurement, 20 ul of Dual Glo® Stop Glo® Reagent was added to each well. Plate was centrifuged at 1000 rpm/2 min and incubated at room temperature on a plate shaker at 600 rpm/25 min. Renilla luciferase signal was measured on Tecan Safire 2. IC50 values for test compounds were calculated from the normalized luciferase signal data using GraphPad Prism software.

T1 sequence (P51449 269-508 limits assumed): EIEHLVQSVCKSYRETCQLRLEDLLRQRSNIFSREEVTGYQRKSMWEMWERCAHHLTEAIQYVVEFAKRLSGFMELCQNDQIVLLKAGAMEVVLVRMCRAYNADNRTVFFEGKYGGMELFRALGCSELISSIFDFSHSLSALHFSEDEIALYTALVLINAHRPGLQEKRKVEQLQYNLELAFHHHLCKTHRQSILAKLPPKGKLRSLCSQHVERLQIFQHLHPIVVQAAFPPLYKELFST
T1 sequence (P04386 1-147 partner limits assumed): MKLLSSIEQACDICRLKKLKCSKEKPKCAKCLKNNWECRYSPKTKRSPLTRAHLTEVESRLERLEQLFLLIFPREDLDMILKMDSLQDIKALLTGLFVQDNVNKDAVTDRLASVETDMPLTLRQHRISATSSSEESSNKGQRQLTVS

By IC50 is commonly meant the concentration at which inhibition is half-maximal. In turn, `O=C(c1c(Cl)cccc1C(F)(F)F)c1cc(C2=CCC(C(=O)O)CC2)c2ccccn12` (stereo not drawn) [Example A-65, 4-[3-[2-chloro-6-(trifluoromethyl)benzoyl]indolizin-1-yl]cyclohex-3-ene-1-carboxylic acid] registered an IC50 of under 500 nM.
For the compound `CCOC(=O)c1ccc(-c2c(F)c(C(=O)c3c(Cl)cccc3Cl)n3ccccc23)cc1` [Example B-1, Ethyl 4-[3-(2,6-dichlorobenzoyl)-2-fluoro-indolizin-1-yl]benzoate], the IC50 is under 500 nM.
The result for `O=C(O)c1ccc(-c2c(F)c(C(=O)c3c(Cl)cccc3Cl)n3ccccc23)cc1` [Example B-2, 4-[3-(2,6-dichlorobenzoyl)-2-fluoro-indolizin-1-yl]benzoic acid] reads under 500 nM; that for `COC(=O)c1ccc(-c2c(F)c(C(=O)c3c(Cl)cccc3Cl)n3ccccc23)c(F)c1` [Example B-3, methyl 4-[3-(2,6-dichlorobenzoyl)-2-fluoro-indolizin-1-yl]-3-fluoro-benzoate], under 500 nM.
The compound `O=C(O)c1ccc(-c2c(F)c(C(=O)c3c(Cl)cccc3Cl)n3ccccc23)c(F)c1` [Example B-4, 4-[3-(2,6-dichlorobenzoyl)-2-fluoro-indolizin-1-yl]-3-fluoro-benzoic acid] gave an IC50 of under 500 nM.
The result for `CCOC(=O)c1ccc(-c2c(F)c(C(=O)c3c(Cl)ccc(F)c3Cl)n3ccccc23)cc1` [Example B-5, ethyl 4-[3-(2,6-dichloro-3-fluoro-benzoyl)-2-fluoro-indolizin-1-yl]benzoate] reads under 500 nM; that for `O=C(O)c1ccc(-c2c(F)c(C(=O)c3c(Cl)ccc(F)c3Cl)n3ccccc23)cc1` [Example B-6, 4-[3-(2,6-dichloro-3-fluoro-benzoyl)-2-fluoro-indolizin-1-yl]benzoic acid], under 500 nM; that for `CCOC(=O)c1ccc(-c2c(C)c(C(=O)c3c(Cl)cccc3Cl)n3ccccc23)c(F)c1` [Example C-1, ethyl 4-[3-(2,6-dichlorobenzoyl)-2-methyl-indolizin-1-yl]-3-fluoro-benzoate], under 500 nM.
The result for `Cc1c(-c2ccc(C(=O)O)cc2F)c2ccccn2c1C(=O)c1c(Cl)cccc1Cl` [Example C-2, 4-[3-(2,6-dichlorobenzoyl)-2-methyl-indolizin-1-yl]-3-fluoro-benzoic acid] reads under 500 nM; that for `CCOC(=O)c1ccc(-c2c(C)c(C(=O)c3c(Cl)cccc3Cl)n3ccccc23)cc1` [Example C-3, ethyl 4-[3-(2,6-dichlorobenzoyl)-2-methyl-indolizin-1-yl]benzoate], under 500 nM.
With `Cc1c(-c2ccc(C(=O)O)cc2)c2ccccn2c1C(=O)c1c(Cl)cccc1Cl` [Example C-4, 4-[3-(2,6-dichlorobenzoyl)-2-methyl-indolizin-1-yl]benzoic acid], the concentration for half-maximal inhibition (IC50) was under 500 nM.
In the case of `Cc1c(-c2ccc(C(=O)O)cc2)c2ccccn2c1C(=O)c1c(Cl)ccnc1Cl` [Example C-5, 4-[3-(2,4-dichloropyridine-3-carbonyl)-2-methyl-indolizin-1-yl]benzoic acid], the IC50 was under 500 nM.
The result for `Cc1c(-c2ccc(C(=O)O)cc2F)c2ccccn2c1C(=O)c1c(Cl)cccc1C(F)(F)F` [Example C-6, 4-[3-[2-chloro-6-(trifluoromethyl)benzoyl]-2-methyl-indolizin-1-yl]-3-fluoro-benzoic acid] reads under 500 nM; that for `Cc1c(-c2ccc(C(=O)O)cc2)c2ccccn2c1C(=O)c1c(Cl)cccc1C(F)(F)F` [Example C-7, 4-[3-[2-chloro-6-(trifluoromethyl)benzoyl]-2-methyl-indolizin-1-yl]benzoic acid], under 500 nM.
The result for `COC(=O)c1ccc(-c2c(C)c(C(=O)c3c(Cl)cccc3C(F)(F)F)n3ccccc23)c(F)c1` [Example C-8, methyl 4-[3-[2-chloro-6-(trifluoromethyl)benzoyl]-2-methyl-indolizin-1-yl]-3-fluoro-benzoate] reads under 500 nM.
The result for `CCOC(=O)c1ccc(-c2c(C)c(C(=O)c3c(Cl)cccc3C(F)(F)F)n3ccccc23)cc1` [Example C-9, ethyl 4-[3-[2-chloro-6-(trifluoromethyl)benzoyl]-2-methyl-indolizin-1-yl]benzoate] reads under 500 nM; that for `CCOC(=O)c1ccc(-c2c(C)c(C(=O)c3c(Cl)ccnc3Cl)n3ccccc23)cc1` [Example C-10, ethyl 4-[3-(2,4-dichloropyridine-3-carbonyl)-2-methyl-indolizin-1-yl]benzoate], under 5000 nM; that for `CN(C)C(=O)c1ccc2c(-c3ccc(C(=O)O)cc3)cc(C(=O)c3c(Cl)cccc3C(F)(F)F)n2c1` [Example D-1, 4-[3-[2-chloro-6-(trifluoromethyl)benzoyl]-6-(dimethylcarbamoyl)indolizin-1-yl]benzoic acid], under 500 nM.
The compound `CN(C)C(=O)c1ccc2c(-c3ccc(C(=O)O)cc3)cc(C(=O)c3c(Cl)cccc3Cl)n2c1` [Example D-2, 4-[3-(2,6-dichlorobenzoyl)-6-(dimethylcarbamoyl)indolizin-1-yl]benzoic acid] yielded an IC50 of under 500 nM.
The result for `O=C(O)c1ccc(-c2cc(C(=O)c3c(Cl)cccc3Cl)n3cc(C(=O)N4CCOCC4)ccc23)cc1` [Example D-3, 4-[3-(2,6-dichlorobenzoyl)-6-(morpholine-4-carbonyl)indolizin-1-yl]benzoic acid] reads under 1000 nM.
Regarding `O=C(O)c1ccc(-c2cc(C(=O)c3c(Cl)cccc3Cl)n3cc(C(=O)N4CCCCC4)ccc23)cc1` [Example D-4, 4-[3-(2,6-dichlorobenzoyl)-6-(piperidine-1-carbonyl)indolizin-1-yl]benzoic acid], the IC50 is under 1000 nM.
The result for `O=C(O)c1ccc(-c2cc(C(=O)c3c(Cl)cccc3Cl)n3cc(C(=O)N4CCCC4)ccc23)cc1` [Example D-5, 4-[3-(2,6-dichlorobenzoyl)-6-(pyrrolidine-1-carbonyl)indolizin-1-yl]benzoic acid] reads under 500 nM; that for `O=C(O)c1ccc(-c2cc(C(=O)c3c(Cl)cccc3Cl)n3cc(C(=O)N4CCC4)ccc23)cc1` [Example D-6, 4-[6-(azetidine-1-carbonyl)-3-(2,6-dichlorobenzoyl)indolizin-1-yl]benzoic acid], under 500 nM.
On to `O=C(O)c1ccc(-c2cc(C(=O)c3c(Cl)cccc3Cl)n3cc(C(=O)NCCO)ccc23)cc1` [Example D-7, 4-[3-(2,6-dichlorobenzoyl)-6-(2-hydroxyethylcarbamoyl)indolizin-1-yl]benzoic acid], for which the IC50 was over 5000 nM.
Compound `COCCNC(=O)c1ccc2c(-c3ccc(C(=O)O)cc3)cc(C(=O)c3c(Cl)cccc3Cl)n2c1` [Example D-8, 4-[3-(2,6-dichlorobenzoyl)-6-(2-methoxyethylcarbamoyl)indolizin-1-yl]benzoic acid] gave an IC50 of over 5000 nM.
The result for `O=C(O)c1ccc(-c2cc(C(=O)c3c(Cl)cccc3C(F)(F)F)n3cc(C(=O)N4CCC4)ccc23)cc1` [Example D-11, 4-[6-(azetidine-1-carbonyl)-3-[2-chloro-6-(trifluoromethyl)benzoyl]indolizin-1-yl]benzoic acid] reads under 500 nM; that for `COC1CN(C(=O)c2ccc3c(-c4ccc(C(=O)O)cc4)cc(C(=O)c4c(Cl)cccc4Cl)n3c2)C1` [Example D-14, 4-[3-(2,6-dichlorobenzoyl)-6-(3-methoxyazetidine-1-carbonyl)indolizin-1-yl]benzoic acid], under 500 nM.
The result for `COC(=O)c1ccc(-c2cc(Oc3c(Cl)cccc3Cl)n3ccccc23)c(F)c1` [Example E-1, methyl 4-[3-(2,6-dichlorophenoxy)indolizin-1-yl]-3-fluoro-benzoate] reads under 500 nM; that for `O=C(O)c1ccc(-c2cc(Oc3c(Cl)cccc3Cl)n3ccccc23)c(F)c1` [Example E-2, 4-[3-(2,6-dichlorophenoxy)indolizin-1-yl]-3-fluoro-benzoic acid], under 5000 nM; that for `CNC(=O)c1ccc(-c2nc(C(=O)c3c(Cl)ccc(F)c3Cl)n3ccccc23)cc1` [Example F-1, 4-[3-(2,6-dichloro-3-fluoro-benzoyl)imidazo[1,5-a]pyridin-1-yl]-N-methyl-benzamide], over 5000 nM.

The record behind these values is patent US10435402B2, “Bicyclic compounds, compositions and medicinal applications thereof” (Advinus Therapeutics Limited, priority 2015, dated 2019).
